Experimental findings from patent US6413935B1, “Induction of immune response against desired determinants” (priority 1993, dated 2002) are described below.

Read-outs that look alike come from different tables or passages of the source. Non-standard residues stand in square brackets, D forms with d. Residues, ends and D or L forms follow the SMILES beside them. Cha = N[C@@H](CC1CCCCC1)C(=O)O

For experiment [1], the system named is DR7. The settings on record: read-out: PADRE Class II Binding Affinities DR7.
Experiment [2] relates to DR5. The following applies: read-out: PADRE Class II Binding Affinities DR5.
In experiment [3] the test system is DQ3.1. The settings on record: for IC50: read-out: PADRE Class II Binding Affinities, Table VIII A.

Regarding `CC(C)C[C@H](NC(=O)[C@@H](NC(=O)[C@H](C)NC(=O)[C@@H](NC(=O)[C@H](C)NC(=O)[C@H](C)NC(=O)[C@H](CC1CCCCC1)NC(=O)[C@H](C)NC(=O)[C@@H](C)N)C(C)C)[C@@H](C)O)C(=O)N[C@@H](CCCCN)C(=O)N[C@@H](C)C(=O)N[C@@H](C)C(=O)N[C@H](C)C(N)=O` [Peptide 906.21] (H-[dA]A[Cha]AAVATLKAA[dA]-NH2; N-terminus and C-terminus assumed), the IC50 came out at 42.4 nM in experiment [1] (Table VIII A) and 3.2 nM in experiment [2] (Table VIII A).
As to `CC(C)C[C@H](NC(=O)[C@@H](NC(=O)[C@H](C)NC(=O)[C@H](Cc1ccccc1)NC(=O)[C@H](C)NC(=O)[C@H](C)NC(=O)[C@H](CC1CCCCC1)NC(=O)[C@H](C)NC(=O)[C@@H](C)N)[C@@H](C)O)C(=O)N[C@@H](CCCCN)C(=O)N[C@@H](C)C(=O)N[C@@H](C)C(=O)N[C@H](C)C(N)=O` [Peptide 906.22] (H-[dA]A[Cha]AAFATLKAA[dA]-NH2; N-terminus and C-terminus assumed), the IC50 in experiment [1] was determined as 59.4 nM; in experiment [2] it was 3.4 nM; in experiment [3], 1880 nM.
Consider `CC(C)C[C@H](NC(=O)[C@@H](NC(=O)[C@H](CCCCN)NC(=O)[C@H](C)NC(=O)[C@H](C)NC(=O)[C@H](C)NC(=O)[C@H](CC1CCCCC1)NC(=O)[C@H](C)NC(=O)[C@@H](C)N)[C@@H](C)O)C(=O)N[C@@H](CCCCN)C(=O)N[C@@H](C)C(=O)N[C@@H](C)C(=O)N[C@H](C)C(N)=O` [Peptide 906.23], for which the IC50 in experiment [1] stood at 29.6 nM; in experiment [2], 2.2 nM; in experiment [3], 26.1 nM.
For `CC(C)C[C@H](NC(=O)[C@@H](NC(=O)[C@H](CCC(=O)O)NC(=O)[C@H](C)NC(=O)[C@H](C)NC(=O)[C@H](C)NC(=O)[C@H](CC1CCCCC1)NC(=O)[C@H](C)NC(=O)[C@@H](C)N)[C@@H](C)O)C(=O)N[C@@H](CCCCN)C(=O)N[C@@H](C)C(=O)N[C@@H](C)C(=O)N[C@H](C)C(N)=O` [Peptide 906.24], the IC50 in experiment [1] (Table VIII A) was 373 nM; in experiment [2] (Table VIII A), 11.1 nM; in experiment [3], 46.6 nM.
Consider `CC(C)C[C@H](NC(=O)[C@@H](NC(=O)[C@H](CCC(N)=O)NC(=O)[C@H](C)NC(=O)[C@H](C)NC(=O)[C@H](C)NC(=O)[C@H](CC1CCCCC1)NC(=O)[C@H](C)NC(=O)[C@@H](C)N)[C@@H](C)O)C(=O)N[C@@H](CCCCN)C(=O)N[C@@H](C)C(=O)N[C@@H](C)C(=O)N[C@H](C)C(N)=O` [Peptide 906.25], for which the IC50 in experiment [2] (Table VIII A) is 3 nM; in experiment [3], 42.5 nM.
Turning to `CC(C)C[C@H](NC(=O)[C@@H](NC(=O)[C@@H](NC(=O)[C@H](C)NC(=O)[C@H](C)NC(=O)[C@H](C)NC(=O)[C@H](CC1CCCCC1)NC(=O)[C@H](C)NC(=O)[C@@H](C)N)C(C)C)[C@@H](C)O)C(=O)N[C@@H](CCCCN)C(=O)N[C@@H](C)C(=O)N[C@@H](C)C(=O)N[C@H](C)C(N)=O` [Peptide 906.26] (H-[dA]A[Cha]AAAVTLKAA[dA]-NH2; N-terminus and C-terminus assumed), the IC50 turned out to be 65.8 nM in experiment [1] (Table VIII A), 3.9 nM in experiment [2] (Table VIII A) and 27.9 nM in experiment [3].
On the same counts, the results for `CC(C)C[C@H](NC(=O)[C@@H](NC(=O)[C@H](Cc1ccccc1)NC(=O)[C@H](C)NC(=O)[C@H](C)NC(=O)[C@H](C)NC(=O)[C@H](CC1CCCCC1)NC(=O)[C@H](C)NC(=O)[C@@H](C)N)[C@@H](C)O)C(=O)N[C@@H](CCCCN)C(=O)N[C@@H](C)C(=O)N[C@@H](C)C(=O)N[C@H](C)C(N)=O` [Peptide 906.27] are 65.8 nM, 2.6 nM and 44.1 nM.
For `CC(C)C[C@H](NC(=O)[C@@H](NC(=O)[C@@H](NC(=O)[C@H](C)NC(=O)[C@H](C)NC(=O)[C@H](C)NC(=O)[C@H](CC1CCCCC1)NC(=O)[C@H](C)NC(=O)[C@@H](C)N)[C@@H](C)O)[C@@H](C)O)C(=O)N[C@@H](CCCCN)C(=O)N[C@@H](C)C(=O)N[C@@H](C)C(=O)N[C@H](C)C(N)=O` [Peptide 906.28], the figures for the IC50 in experiment [1] (Table VIII A), in experiment [2] (Table VIII A) and in experiment [3] were 69.4 nM, 5 nM and 28.5 nM, respectively.
As for `C[C@H](NC(=O)[C@H](C)NC(=O)[C@H](C)NC(=O)[C@H](CC1CCCCC1)NC(=O)[C@H](C)NC(=O)[C@@H](C)N)C(=O)N[C@@H](C)C(=O)N[C@H](C(=O)N[C@@H](CCCCN)C(=O)N[C@@H](CCCCN)C(=O)N[C@@H](C)C(=O)N[C@@H](C)C(=O)N[C@H](C)C(N)=O)[C@@H](C)O` [Peptide 906.29] (H-[dA]A[Cha]AAAATKKAA[dA]-NH2; N-terminus and C-terminus assumed), the IC50 in experiment [2] (Table VIII A) was determined as 7.7 nM; in experiment [3] it was 283 nM. For the same compound, the “Increase in DQ3.1 binding reactivity” value in experiment [3] (relative to parent 760.57) is reported as “no reactivity was gained”.
Take `C[C@H](NC(=O)[C@H](C)NC(=O)[C@H](C)NC(=O)[C@H](CC1CCCCC1)NC(=O)[C@H](C)NC(=O)[C@@H](C)N)C(=O)N[C@@H](C)C(=O)N[C@H](C(=O)N[C@@H](CCC(N)=O)C(=O)N[C@@H](CCCCN)C(=O)N[C@@H](C)C(=O)N[C@@H](C)C(=O)N[C@H](C)C(N)=O)[C@@H](C)O` [Peptide 906.31]: the IC50 in experiment [1] (Table VIII A) stood at 100 nM; in experiment [2] (Table VIII A) it was 11.8 nM; in experiment [3], 52.6 nM.
With `CC(C)C[C@H](NC(=O)[C@@H](NC(=O)[C@H](C)NC(=O)[C@H](C)NC(=O)[C@H](C)NC(=O)[C@H](C)NC(=O)[C@H](CC1CCCCC1)NC(=O)[C@H](C)NC(=O)[C@@H](C)N)[C@@H](C)O)C(=O)N[C@@H](CCC(=O)O)C(=O)N[C@@H](C)C(=O)N[C@@H](C)C(=O)N[C@H](C)C(N)=O` [Peptide 906.35], the IC50 was found to be 10.5 nM in experiment [2] (Table VIII A) and 39.5 nM in experiment [3].
Take `CC(C)C[C@H](NC(=O)[C@@H](NC(=O)[C@H](C)NC(=O)[C@H](C)NC(=O)[C@H](C)NC(=O)[C@H](C)NC(=O)[C@H](CC1CCCCC1)NC(=O)[C@H](C)NC(=O)[C@@H](C)N)[C@@H](C)O)C(=O)N[C@@H](CCC(N)=O)C(=O)N[C@@H](C)C(=O)N[C@@H](C)C(=O)N[C@H](C)C(N)=O` [Peptide 906.36]: the IC50 in experiment [2] (Table VIII A) amounted to 8.3 nM; in experiment [3], 23.7 nM.
Turning to `CC(C)C[C@H](NC(=O)[C@@H](NC(=O)[C@H](C)NC(=O)[C@H](C)NC(=O)[C@H](C)NC(=O)[C@H](C)NC(=O)[C@H](CC1CCCCC1)NC(=O)[C@H](C)NC(=O)[C@@H](C)N)[C@@H](C)O)C(=O)N[C@@H](Cc1ccccc1)C(=O)N[C@@H](C)C(=O)N[C@@H](C)C(=O)N[C@H](C)C(N)=O` [Peptide 906.38], the values for the IC50 in experiment [1] (Table VIII A) and in experiment [2] (Table VIII A) were 56.8 nM and 19.2 nM, respectively.
As for `CC(C)C[C@H](NC(=O)[C@@H](NC(=O)[C@H](C)NC(=O)[C@H](C)NC(=O)[C@H](C)NC(=O)[C@H](C)NC(=O)[C@H](CC1CCCCC1)NC(=O)[C@H](C)NC(=O)[C@@H](C)N)[C@@H](C)O)C(=O)N[C@@H](CCCCN)C(=O)N[C@@H](CCC(=O)O)C(=O)N[C@@H](C)C(=O)N[C@H](C)C(N)=O` [Peptide 906.41] (H-[dA]A[Cha]AAAATLKEA[dA]-NH2; N-terminus and C-terminus assumed), the IC50 in experiment [1] (Table VIII A) is 252 nM.
On to `CC(C)C[C@H](NC(=O)[C@@H](NC(=O)[C@H](C)NC(=O)[C@H](C)NC(=O)[C@H](C)NC(=O)[C@H](C)NC(=O)[C@H](CC1CCCCC1)NC(=O)[C@H](C)NC(=O)[C@@H](C)N)[C@@H](C)O)C(=O)N[C@@H](CCCCN)C(=O)N[C@@H](CCC(N)=O)C(=O)N[C@@H](C)C(=O)N[C@H](C)C(N)=O` [Peptide 906.42] (H-[dA]A[Cha]AAAATLKQA[dA]-NH2; N-terminus and C-terminus assumed), for which the IC50 in experiment [2] (Table VIII A) came out at 29.4 nM; in experiment [3], 484 nM.
As for `CC(C)C[C@H](NC(=O)[C@@H](NC(=O)[C@H](C)NC(=O)[C@H](C)NC(=O)[C@H](C)NC(=O)[C@H](C)NC(=O)[C@H](CC1CCCCC1)NC(=O)[C@H](C)NC(=O)[C@@H](C)N)[C@@H](C)O)C(=O)N[C@@H](CCCCN)C(=O)N[C@@H](Cc1ccccc1)C(=O)N[C@@H](C)C(=O)N[C@H](C)C(N)=O` [Peptide 906.44] (H-[dA]A[Cha]AAAATLKFA[dA]-NH2; N-terminus and C-terminus assumed), the IC50 in experiment [1] (Table VIII A) turned out to be 25 nM; in experiment [2] (Table VIII A), 104 nM.
`CC(C)C[C@H](NC(=O)[C@@H](NC(=O)[C@H](C)NC(=O)[C@H](C)NC(=O)[C@H](C)NC(=O)[C@H](C)NC(=O)[C@H](CC1CCCCC1)NC(=O)[C@H](C)NC(=O)[C@@H](C)N)[C@@H](C)O)C(=O)N[C@@H](CCCCN)C(=O)N[C@@H](C)C(=O)N[C@@H](CCC(=O)O)C(=O)N[C@H](C)C(N)=O` [Peptide 906.47] (H-[dA]A[Cha]AAAATLKAE[dA]-NH2; N-terminus and C-terminus assumed): the IC50 in experiment [2] (Table VIII A) was 25.5 nM; in experiment [3], 60.2 nM.
As for `CC(C)C[C@H](NC(=O)[C@@H](NC(=O)[C@H](CC(N)=O)NC(=O)[C@H](C)NC(=O)[C@H](Cc1c[nH]c2ccccc12)NC(=O)[C@@H](NC(=O)[C@H](CC1CCCCC1)NC(=O)[C@H](CCCCN)NC(=O)[C@@H](C)N)C(C)C)[C@@H](C)O)C(=O)N[C@@H](CCCCN)C(=O)N[C@@H](C)C(=O)N[C@@H](C)C(=O)N[C@H](C)C(N)=O` [Peptide 965.031], the IC50 in experiment [1] (Table IX) was 208 nM; in experiment [2] (Table IX) it was 8.3 nM; in experiment [2] (Table IX, listed as 965.032), 2.9 nM.
With `CC(C)C[C@H](NC(=O)[C@@H](NC(=O)[C@H](Cc1c[nH]cn1)NC(=O)[C@H](C)NC(=O)[C@H](CCCCN)NC(=O)[C@@H](NC(=O)[C@H](CC1CCCCC1)NC(=O)[C@H](CCCCN)NC(=O)[C@@H](C)N)C(C)C)[C@@H](C)O)C(=O)N[C@@H](CCCCN)C(=O)N[C@@H](C)C(=O)N[C@@H](C)C(=O)N[C@H](C)C(N)=O` [Peptide 965.071], the IC50 in experiment [1] (Table IX, listed as 965.072) amounted to 556 nM; in experiment [2] (Table IX), 10.5 nM; in experiment [2] (Table IX, listed as 965.072) it was 4.8 nM.
